Data as given in ChEMBL document CHEMBL1944573, “New bisabolane sesquiterpenoids from a marine-derived fungus Aspergillus sp. isolated from the sponge Xestospongia testudinaria” (Bioorg Med Chem Lett, 2012).
Converted amounts (≈) assume the structure as drawn.

Columns and labels:
[1] = system: Ca-Ski; experiment: Cytotoxicity against human CaSki cells by MTT assay; type: functional, cell-based
[2] = system: HepG2; experiment: Cytotoxicity against human HepG2 cells by MTT assay; type: functional, cell-based

| SMILES | IC50 [1] | IC50 [2] |
| --- | --- | --- |
| CC(C)CCC[C@](C)(O)c1ccc(COc2cc(CO)ccc2[C@@](C)(O)CCCC(C)C)cc1O [DISYDONOL A] | 12.4 µg/mL (≈ 25.5 µM) | 9.31 µg/mL (≈ 19.1 µM) |
| CC(C)CCC[C@](C)(O)c1ccc(CO)cc1Oc1cc(CO)ccc1[C@](C)(O)CCCC(C)C [DISYDONOL B] | > 100 µg/mL | > 100 µg/mL |
| CC(C)CCC[C@](C)(O)c1ccc(Cc2cc([C@@](C)(O)CCCC(C)C)c(O)cc2CO)cc1O [DISYDONOL C] | 10.2 µg/mL (≈ 21 µM) | 2.91 µg/mL (≈ 5.98 µM) |
